Patent US5045537A, “Hydrophilic renin inhibitors, their preparation and use” (Sandoz Ltd., priority 1987, dated 1991)

What was measured:
FeLV = conditions: 30 mg treatment over 14 days; cited from earlier work
human plasma renin = target: T1, human plasma renin (Homo sapiens, UniProt P00797); test: Antibody-trapping method of Poulsen and Jorgensen, human plasma renin activity; type: biochemical; conditions: antibody trapping test
T1 construct: human plasma renin activity; from tissue; host or cells: human plasma
T1 sequence (P00797 67-406): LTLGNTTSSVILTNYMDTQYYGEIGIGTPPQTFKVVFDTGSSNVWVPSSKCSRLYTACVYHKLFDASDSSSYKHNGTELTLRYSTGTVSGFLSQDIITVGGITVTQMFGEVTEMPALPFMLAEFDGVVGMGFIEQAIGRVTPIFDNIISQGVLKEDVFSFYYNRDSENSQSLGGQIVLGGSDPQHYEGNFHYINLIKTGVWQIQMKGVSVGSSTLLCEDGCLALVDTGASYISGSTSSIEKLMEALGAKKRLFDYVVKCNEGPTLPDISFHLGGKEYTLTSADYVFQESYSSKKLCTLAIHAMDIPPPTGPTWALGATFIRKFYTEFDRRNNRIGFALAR
Description: In the antibody-trapping method of K. Poulsen and J. Jorgensen (J. Clin. Endocrin. Metab. 39, [1974] 816-825), they inhibit human plasma renin activity at a concentration of 10^-5 M to 10^-11 M.

Row | IC50 (human plasma renin) [nM] | highest inhibiting concentration (human plasma renin) [nM/l] | lowest inhibiting concentration (human plasma renin) | SMILES | cure (FeLV) | reduction of FeLV-titres by a factor (FeLV)
1 | – | – | – | Cc1cn([C@H]2C[C@H](N=[N+]=[N-])[C@@H](CO)O2)c(=O)[nH]c1=O [3'-azido-3'-deoxy-thymidine] | no cure was achieved | 10
2 | 1.5 | 15 | 0,15 nM/l | CCCC[C@H](NC(=O)[C@H](Cc1cccs1)NC(=O)COCCOCCOCCOC)C(=O)N[C@@H](CC1CCCCC1)[C@@H](O)CC(=O)N[C@@H](CC(C)C)C(=O)NCc1ccccn1 [Example 46, 3EG-Thala-Nle-Chatin-Leu-α-Pic] | – | –
